# Experimental data: patent US20230129364A1, “PYRROLIDINE DERIVATIVE, AND PHARMACEUTICAL COMPOSITION FOR PREVENTING OR TREATING BETA-AMYLOID OR TAU PROTEIN-ASSOCIATED DISEASES CONTAINING SAME” (YONSEI UNIVERSITY, UNIVERSITY - INDUSTRY FOUNDATION (UIF), priority 2019, published 2023)
# Legend:
# [1] = biological target: T1, Tau protein (wild-type K18) (Homo sapiens, UniProt P10636); test: Tau protein aggregation inhibition test (thioflavin T assay); assay type: biochemical; conditions: heparin/DTT-induced aggregation, 37° C. 5 days, ThT fluorescence vs tau-only control = 100%
# T1 construct: Tau protein (wild-type K18)
# Description: (§1) Tau protein (wild-type K18) was dissolved in phosphate-buffered saline (PBS, pH 7.4) at a concentration of 1 mg/mL to prepare a tau protein solution. In order to induce aggregation of tau proteins, 0.1 mg/mL of heparin and 100 μM dithiothreitol (DTT) were added to 1 mg/mL of the tau protein solution, followed by incubation at 37° C. for 5 days. At this time, the result was mixed with each test compound (50, 500 μM) such that the final concentration reached 0.5 mg/mL, followed by further incubation.
# The inhibitory effect of each compound against tau aggregation was measured based on the intensity of fluorescence by thioflavin T (ThT) assay (see Example 2). More specifically, 25 μL of the reaction solution was charged in each well of a 96-well plate for fluorescence analysis, and 75 μL of the prepared thioflavin-T solution was then charged in each well. The reaction was allowed to proceed at room temperature in a dark laboratory for 5 minutes, and then fluorescence values were measured at an excitation wavelength of 450 nm and an emission wavelength of 485 nm using a multi-mode microplate reader.
# The ratio of the fluorescence value measured in the group obtained by treating with each test compound to 100% of the fluorescence value of the group (control group) obtained by treating only with tau proteins and inducing aggregation for 5 days is set forth in Table 5 below: […]
# [2] = biological target: T2, aggregated tau protein (wild-type K18) (Homo sapiens, UniProt P10636); test: Tau protein aggregate degradation test (thioflavin T assay); assay type: biochemical; conditions: pre-aggregated tau, further 5 days at 37° C., ThT fluorescence vs control = 100%
# T2 construct: Tau protein (wild-type K18)
# Description: as §1, with “solution.” for “solution. In order to induce aggregation of tau proteins,”, “days to induce tau protein aggregation. The aggregated tau protein” for “days. At this time, the result”, “in an amount of 50 or” for “(50,”, “μM” for “μM)”, “incubation at 37° C. for 5 days to induce reaction.” for “incubation.”
# The degradation effect of each compound on the tau aggregates was measured by thioflavin T (ThT) assay (see Example 2). More specifically, 25 μL of the reaction solution was charged in each well of a 96-well plate for fluorescence analysis and 75 μL of the prepared thioflavin-T solution was charged in each well. The reaction was allowed to proceed at room temperature in a dark laboratory for 5 minutes and then fluorescence values were measured at an excitation wavelength of 450 nm and an emission wavelength of 485 nm using a multi-mode microplate reader.
# The ratio of the fluorescence value measured in the group obtained by treating with each test compound to 100% of the fluorescence value of the group (control group) obtained by treating only with tau proteins and inducing aggregation for 5 days is set forth in Table 6 below: […]
# T1 sequence (P10636 561-685 limits assumed): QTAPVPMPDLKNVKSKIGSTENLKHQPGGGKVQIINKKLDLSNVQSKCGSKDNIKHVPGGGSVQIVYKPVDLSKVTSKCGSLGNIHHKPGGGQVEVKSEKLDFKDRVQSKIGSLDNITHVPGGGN
# T2 sequence (P10636 561-685 limits assumed): as above
SMILES,"Tau aggregation remaining (ThT fluorescence, % of tau-only control) ([1]; 50 uM test compound)","Tau aggregation remaining (ThT fluorescence, % of tau-only control) ([1]; 500 uM test compound)",ThT fluorescence remaining (% of control) ([2]; 50 uM test compound),ThT fluorescence remaining (% of control) ([2]; 500 uM test compound)
"O=C1NC(=O)/C(=C/c2c[nH]c3ccccc23)S1 [DN204285, (Z)-5-((1H-indol-3-yl)methylene)thiazolidine-2,4-dione]",53.14 % of control,42.56 % of control,64.04 % of control,78.38 % of control
"O=C1NC(=O)/C(=C/c2ccoc2)S1 [DN204287, (Z)-5-(furan-3-ylmethylene)thiazolidine-2,4-dione]",69.16 % of control,59.86 % of control,61.17 % of control,71.42 % of control
"O=C1NC(=O)/C(=C/c2ccsc2)S1 [DN204288, (Z)-5-(thiophen-3-ylmethylene) thiazolidine-2,4-dione]",74.09 % of control,80.79 % of control,–,–
"O=C1NC(=O)/C(=C/c2c[nH]c3cnccc23)S1 [DN204290, (Z)-5-((1H-pyrrolo[2,3-c]pyridin-3-yl)methylene)thiazolidine-2,4-dione]",63.13 % of control,42.61 % of control,54.41 % of control,40.38 % of control
"O=C1NC(=O)C(Cc2csc3ccccc23)S1 (centres unmarked) [DN204291, 5-(benzo[b]thiophen-3-ylmethyl)thiazolidine-2,4-dione]",65.99 % of control,–,–,–
"O=C1NC(=O)C(Cc2ccoc2)S1 (centres unmarked) [DN204292, 5-(furan-3-ylmethyl)thiazolidine-2,4-dione]",63.18 % of control,60.16 % of control,82.23 % of control,77.46 % of control
"O=C1NC(=O)C(Cc2ccsc2)S1 (centres unmarked) [DN204293, 5-(thiophen-3-ylmethyl)thiazolidine-2,4-dione]",55.97 % of control,58.22 % of control,–,95.86 % of control
"O=C1NC(=O)C(Cc2c[nH]c3ccccc23)S1 (centres unmarked) [DN204295, 5-((1H-indol-3-yl)methyl)thiazolidine-2,4-dione]",74.98 % of control,59.6 % of control,89.98 % of control,–
"O=C1NC(=S)SC1Cc1csc2ccccc12 (centres unmarked) [DN204300, 5-(benzo[b]thiophen-3-ylmethyl)-2-thioxothiazolidin-4-one]",92.633 % of control,–,–,–
"O=C1NC(=S)SC1Cc1c[nH]c2ccccc12 (centres unmarked) [DN204301, 5-((1H-indol-3-yl)methyl)-2-thioxothiazolidin-4-one]",90.337 % of control,39.019 % of control,80.31 % of control,45.47 % of control
"O=C1NC(=S)SC1Cc1cnc2ccccc2c1 (centres unmarked) [DN204302, 5-(quinolin-3-ylmethyl)-2-thioxothiazolidin-4-one]",67.16 % of control,47.38 % of control,–,–
"O=C1NC(=S)SC1Cc1ccoc1 (centres unmarked) [DN204305, 5-(furon-3-ylmethyl)-2-thioxothiazolidin-4-one]",83.45 % of control,56.13 % of control,61.22 % of control,56.43 % of control
"O=C1NC(=S)SC1Cc1ccsc1 (centres unmarked) [DN204306, 5-(thiophen-3-ylmethyl)-2-thioxothiazolidin-4-one]",66.31 % of control,52.16 % of control,66.03 % of control,73.34 % of control
"O=C1NC(=O)C(Cc2cc[nH]c2)S1 (centres unmarked) [DN204307, 5-((1H-pyrrol-3-yl)methyl)thiazolidine-2,4-dione]",–,57.26 % of control,–,–
"CN1C(=O)N/C(=C\c2cccc3ccoc23)C1=O [DN204670, (Z)-5-(benzofuran-7-ylmethylene)-3-methylimidazolidine-2,4-dione]",87.73 % of control,–,–,–
"CN1C(=O)N/C(=C\c2csc3ccccc23)C1=O [DN204671, (Z)-5-(benzo[b]thiophen-3-ylmethylene)-3-methylimidazolidine-2,4-dione]",88.61 % of control,77.02 % of control,–,–
"CCN1C(=O)/C(=C/c2csc3ccccc23)NC1=S [DN204810, (Z)-5-(benzo[b]thiophen-3-ylmethylene)-3-ethyl-2-thioxoimidazolidin-4-one]",87.61 % of control,65.66 % of control,–,–
"CCN1C(=O)/C(=C/c2cccs2)NC1=S [DN204815, (Z)-3-ethyl-5-(thiophen-2-ylmethylene)-2-thioxoimidazolidin-4-one]",–,70.7 % of control,39.88 % of control,36.97 % of control
"CCN1C(=O)/C(=C/c2c[nH]c3cnccc23)SC1=S [DN205779, (Z)-5-((1H-pyrrolo[2,3-c]pyridin-3-yl)methylene)-3-ethyl-2-thioxothiazolidin-4-one]",83.56 % of control,62.51 % of control,–,–
"CCN1C(=O)/C(=C/c2csc3ccccc23)SC1=S [DN205782, (Z)-5-(benzo[b]thiophen-3-ylmethylene)-3-ethyl-2-thioxothiazolidin-4-one]",97.55 % of control,75.35 % of control,–,–
CCN1C(=O)/C(=C/c2cccc3ccccc23)SC1=S [DN205783],81.81 % of control,69.79 % of control,–,–
"CCN1C(=O)N/C(=C\c2c[nH]c3ccncc23)C1=O [DN205822, (Z)-5-((1H-pyrrolo[3,2-c]pyridin-3-yl)methylene)-3-ethylimidazolidine-2,4-dione]",83.97 % of control,–,–,–
